# Experimental data: patent US20180070870A1, “Autonomous Sweat Extraction and Analysis Using a Fully-Integrated Wearable Platform” (The Board of Trustees of the Leland Stanford Junior …, priority 2016, published 2018)
# Test system: sweat secretion
# Test: Induced sweat rate profiles stimulated by cholinergic agonist hydrogels under iontophoresis, measured with a sweat rate sensor
# Format: in vivo, human
# Details: iontophoresis 2 mA for 5 minutes
# Description: Bars represent values for response latency (time in seconds to onset of secretion from start of iontophoresis), response duration (total time in minutes of secretion above baseline, measurements stopped at 60 minutes), peak secretory rate in response to stimulation, time to reach peak secretory rate and time spent secreting at the peak rate. […] By modulating the formulation of the compounds that are loaded into the iontophoresis hydrogel, we can achieve different patterns of sweat secretion rate. We characterized the induced sweat rate profiles as stimulated by three different cholinergic agonist hydrogels (acetylcholine, methacholine and pilocarpine) each at two different concentrations. For this characterization step, 2 mA of current over duration of 5 minutes was applied using a pair of ring-shaped electrodes (WR Medical Electronics Co., MN, area: 4.3 cm2), with the sweat rate sensor (Q-sweat, WR Medical Electronics Co., MN) mounted on the positive electrode, sealing the stimulated area. […] This pattern is suitable for the case where periodic sweat sampling with short intervals is required. […] To retrieve the induced sweat rate information, immediately after each stimulation step, the stimulated area was wiped dry and sealed with the sweat rate sensor. After each characterization step, the same pair of hydrogels were reused for the subsequent stimulation. […]
row,Compound,share of the secretion period spent at about the peak rate
1,CC(=O)OC(C)C[N+](C)(C)C (centres unmarked) [methacholine],about half
2,CC[C@@H]1C(=O)OC[C@@H]1Cc1cncn1C [pilocarpine],about half
